This passage reports MIC results from patent US20250326713A1, “INHIBITORS OF MsbA AS ANTIBIOTICS, PHARMACEUTICAL COMPOSITIONS, AND USES THEREOF” (priority 2022, published 2025).

The assay relates to various strains of bacteria. Nature of the assay: Antimicrobial potency: bacterial growth inhibition by OD600 (Antibacterial assay 1, MITC95). The assay is classed as cell-based, A. baumannii. As to conditions: lowest concentration giving >95% growth inhibition, CAMHB, 18-22 h. On the procedure:
The concentrations of compounds required to inhibit the growth of various strains of bacteria were determined in an assay that assessed bacterial growth by measuring optical density at 600 nm (OD600). Test articles were dissolved in 100% DMSO and serially diluted two-fold from their maximal concentration in 100% DMSO. Forty-nine μl of bacterial inoculum (at approx. 2×10^5 cfu/mL in CAMHB) were put into wells of an assay plate. One μl of compound or DMSO was transferred from the source plate to the assay plate. The completed assay plates were then incubated at 35+2degC for 18-22 h. Bacterial growth was measured by reading OD600 on a spectrophotometer. Data analysis calculates the lowest concentration of compound which results in >95% growth inhibition (minimum inhibitory threshold concentration 95%, MITC95).

SMILES strings stand for the structures. In brackets after ≈: the same amount, converted by molar mass.

With `O=C(O)c1cc(CN2CC(Oc3ccc(NS(=O)(=O)c4ccc(-c5ccc(F)cc5)cc4)c(C(=O)O)c3)C2)ccc1NS(=O)(=O)CCc1ccc(F)cc1` [Compound 102], the MIC (Acinetobacter baumannii, 20 h) amounted to 0.0489 µM (≈ 0.038 µg/mL).

In turn, `O=C(O)c1cc(OC[C@H]2CC[C@@H](COc3ccc(NS(=O)(=O)c4ccc(-c5ccc(Cl)cc5)s4)c(C(=O)O)c3)O2)ccc1NS(=O)(=O)c1ccc(-c2ccc(Cl)cc2)s1` [Compound 23] yielded an MIC (Acinetobacter baumannii, 20 h) of 0.0346 µM (≈ 0.0317 µg/mL).

Consider `O=C(O)c1cc(OC[C@H]2C[C@@H](NCc3ccc(NS(=O)(=O)N4CCOC(c5ccc(F)cc5)C4)c(C(=O)O)c3)C2)ccc1NS(=O)(=O)c1cnn(-c2ccc(F)cc2)c1` (stereo partly drawn) [Compound 88], for which the MIC (Acinetobacter baumannii, 20 h) was found to be 0.0122 µM (≈ 0.0104 µg/mL).

In turn, `O=C(O)c1cc(NCC2CC(NCc3ccc(NS(=O)(=O)c4cnn(-c5ccc(F)cc5)n4)c(C(=O)O)c3)C2)ccc1NS(=O)(=O)c1cnn(-c2ccc(F)cc2)c1` (stereo not drawn) [Compound 31] yielded an MIC (Acinetobacter baumannii, 20 h) of 0.196 µM (≈ 0.163 µg/mL).

Consider `O=C(O)c1cc(OC2CN(Cc3ccc(NS(=O)(=O)c4ccc(-c5ccc(Cl)cc5)cc4)c(C(=O)O)c3)C2)ccc1NS(=O)(=O)CCc1ccc(F)cc1` [Compound 81, 5-((3-(3-carboxy-4-((2-(4-fluorophenyl)ethyl)sulfonamido)phenoxy)azetidin-1-yl)methyl)-2-((4′-chloro-[1, l′-biphenyl])-4-sulfonamido)benzoic acid], for which the MIC turned out to be 0.0122 µM (≈ 0.00969 µg/mL).

Molecule `O=C(O)c1cc(COC2CC(OCc3ccc(NS(=O)(=O)c4ccc(-c5ccc(F)cc5)cc4)c(C(=O)O)c3)C2)ccc1NS(=O)(=O)c1ccc(-c2ccc(F)cc2)cc1` (stereo not drawn) [Compound 14] returned a minimal inhibitory concentration (MIC) (Acinetobacter baumannii, 20 h) of 0.0245 µM (≈ 0.0209 µg/mL).

`O=C(O)c1cc(COC2CN(Cc3ccc(NS(=O)(=O)c4cnn(-c5ccc(F)cc5)c4)c(C(=O)O)c3)C2)ccc1NS(=O)(=O)c1cnn(-c2ccc(F)cc2)c1` [Compound 38] displayed an MIC (Acinetobacter baumannii, 20 h) of 0.391 µM (≈ 0.321 µg/mL).

For `O=C(O)c1cc(CN[C@H]2C[C@@H](COc3ccc(NS(=O)(=O)N4CCOC(c5ccc(F)cc5)C4)c(C(=O)O)c3)C2)ccc1NS(=O)(=O)N1CCOC(c2ccc(F)cc2)C1` (stereo partly drawn) [Compound 95], the MIC (Acinetobacter baumannii, 20 h) was determined as 0.0122 µM (≈ 0.0106 µg/mL).

For the molecule `O=C(O)c1cc(CN2CC(Oc3ccc(NS(=O)(=O)c4coc(-c5ccc(F)cc5)n4)c(C(=O)O)c3)C2)ccc1NS(=O)(=O)c1coc(-c2ccc(F)cc2)n1` [Compound 116], under “Acinetobacter baumannii, 20 h”, the MIC was 0.0978 µM (≈ 0.079 µg/mL).

Molecule `O=C(O)c1cc(OC2CN(Cc3ccc(NS(=O)(=O)N4CCOC(c5ccc(F)cc5)C4)c(C(=O)O)c3)C2)ccc1NS(=O)(=O)N1CCOC(CCO)C1` (stereo not drawn) [Compound 47] returned a minimum inhibitory concentration (MIC) (Acinetobacter baumannii, 20 h) of 1.57 µM (≈ 1.25 µg/mL).

`O=C(O)c1cc(CNC2CC(CNc3ccc(NS(=O)(=O)c4cnn(-c5ccc(F)cc5)c4)c(C(=O)O)c3)C2)ccc1NS(=O)(=O)c1ccc(-c2ccc(Cl)cc2)cc1` (stereo not drawn) [Compound 30]: the MIC (Acinetobacter baumannii, 20 h) is 0.277 µM (≈ 0.238 µg/mL).

Regarding `O=C(Cc1cccc(Cl)c1)Nc1ccc(OC2CN(Cc3ccc(NS(=O)(=O)c4cnn(-c5ccc(Cl)cc5)c4)c(C(=O)O)c3)C2)cc1C(=O)O` [Compound 73], the MIC (Acinetobacter baumannii, 20 h) was determined as 0.196 µM (≈ 0.147 µg/mL).

In turn, `O=C(NCc1ccc(Cl)cc1)C(=O)Nc1ccc(OC2CN(Cc3ccc(NS(=O)(=O)CCc4ccc(Cl)cc4)c(C(=O)O)c3)C2)cc1C(=O)O` [Compound 61] came in with a minimal inhibitory concentration (MIC) (Acinetobacter baumannii, 20 h) of 0.196 µM (≈ 0.148 µg/mL).

The molecule `O=C(O)c1cc(OC2CN(Cc3ccc(NS(=O)(=O)c4cnn(-c5ccc(Cl)cc5)c4)c(C(=O)O)c3)C2)ccc1NS(=O)(=O)CCc1ccc(F)cc1` [Compound 82] yielded an MIC (Acinetobacter baumannii, 20 h) of 0.0346 µM (≈ 0.0271 µg/mL).

Under “Acinetobacter baumannii, 20 h”, `C[C@]1(NCc2ccc(NS(=O)(=O)c3cnn(-c4ccc(Cl)cc4)c3)c(C(=O)O)c2)C[C@@H](NCc2ccc(NS(=O)(=O)c3cnn(-c4ccc(Cl)cc4)c3)c(C(=O)O)c2)C1` [Compound 51] yielded a minimal inhibitory concentration (MIC) of 3.13 µM (≈ 2.75 µg/mL).

In turn, `O=C(O)c1cc(COC2CN(Cc3ccc(NS(=O)(=O)c4cnn(-c5ccc(Cl)cc5)c4)c(C(=O)O)c3)C2)ccc1NS(=O)(=O)c1cnn(-c2ccc(Cl)cc2)c1` [Compound 37, 5-(((1-(3-carboxy-4-(1-(4-chlorophenyl)-1H-pyrazole-4-sulfonamido)benzyl)azetidin-3-yl)oxy)methyl)-2-(1-(4-chlorophenyl)-1H-pyrazole-4-sulfonamido)benzoic acid] registered an MIC (Acinetobacter baumannii, 20 h) of 0.0692 µM (≈ 0.059 µg/mL).

Molecule `O=C(O)c1cc(OC2CN(Cc3ccc(NS(=O)(=O)c4cnc(-c5ccc(Cl)cc5)s4)c(C(=O)O)c3)C2)ccc1NS(=O)(=O)CCc1ccc(F)cc1` [Compound 85] had an MIC (Acinetobacter baumannii, 20 h) of 0.0173 µM (≈ 0.0139 µg/mL).

For `O=C(CCCCC(c1ccccc1)c1ccccc1)Nc1ccc(OC2CN(Cc3ccc(NS(=O)(=O)c4cnn(-c5ccc(Cl)cc5)c4)c(C(=O)O)c3)C2)cc1C(=O)O` [Compound 74], under “Acinetobacter baumannii, 20 h”, the minimum inhibitory concentration (MIC) worked out at 0.31 µM (≈ 0.263 µg/mL).

With `O=C(O)c1cc(COC2CC(OCc3ccc(NS(=O)(=O)c4cnn(-c5ccc(F)cc5)c4)c(C(=O)O)c3)C2)ccc1NS(=O)(=O)c1cnn(-c2ccc(F)cc2)c1` (stereo not drawn) [Compound 12, trans-5-((3-((3-carboxy-4-((1-(4-fluorophenyl)-1H-pyrazole)-4-sulfonamido)benzyl)oxy)-cyclobutoxy)methyl)-2-((1-(4-fluorophenyl)-1H-pyrazole)-4-sulfonamido)benzoic acid], the MIC (Acinetobacter baumannii, 20 h) was found to be 0.138 µM (≈ 0.115 µg/mL).

The molecule `O=C(O)c1cc(CNC2CC(CNc3ccc(NS(=O)(=O)c4cnn(-c5ccc(F)cc5)c4)c(C(=O)O)c3)C2)ccc1NS(=O)(=O)c1cnn(-c2ccc(F)cc2)c1` (stereo not drawn) [Compound 25, cis-5-(((3-((3-carboxy-4-((1-(4-fluorophenyl)-1H-pyrazole)-4-sulfonamido)benzyl)amino)cyclobutyl)methyl)amino)-2-((1-(4-fluorophenyl)-1H-pyrazole)-4-sulfonamido)benzoic acid] showed an MIC (Acinetobacter baumannii, 20 h) of 0.155 µM (≈ 0.129 µg/mL).

As to `O=C(O)c1cc(CN2CC(Oc3ccc(NS(=O)(=O)c4cnn(-c5ccc(F)cc5)c4)c(C(=O)O)c3)C2)ccc1NS(=O)(=O)CCCCCCc1ccc(Cl)cc1` [Compound 40], where the note is “Acinetobacter baumannii, 20 h”, the MIC was 0.0489 µM (≈ 0.0411 µg/mL).

As to `O=C(NCc1cccc(Cl)c1)C(=O)Nc1ccc(OC2CN(Cc3ccc(NS(=O)(=O)c4ccc(-c5ccc(Cl)cc5)cc4)c(C(=O)O)c3)C2)cc1C(=O)O` [Compound 63], the MIC (Acinetobacter baumannii, 20 h) was 0.196 µM (≈ 0.158 µg/mL).

Where the note is “Acinetobacter baumannii, 20 h”, `O=C(O)c1cc(OC[C@H]2CC[C@@H](COc3ccc(NS(=O)(=O)c4cnn(-c5ccc(F)cc5)n4)c(C(=O)O)c3)O2)ccc1NS(=O)(=O)c1cnn(-c2ccc(F)cc2)n1` [Compound 20] registered a minimum inhibitory concentration (MIC) of 0.0245 µM (≈ 0.0209 µg/mL).

`Cn1nc(-c2ccccc2)cc1S(=O)(=O)Nc1ccc(CN2CC(Oc3ccc(NS(=O)(=O)c4ccc(-c5ccc(Cl)cc5)cc4)c(C(=O)O)c3)C2)cc1C(=O)O` [Compound 106]: the MIC (Acinetobacter baumannii, 20 h) was 0.0489 µM (≈ 0.0405 µg/mL).

Regarding `O=C(O)c1cc(OC2CN(Cc3ccc(NS(=O)(=O)c4ccc(-c5ccc(Cl)cc5)s4)c(C(=O)O)c3)C2)ccc1NS(=O)(=O)c1ccc(-c2ccc(F)cc2)cc1` [Compound 107], the MIC (Acinetobacter baumannii, 20 h) is 0.0489 µM (≈ 0.0415 µg/mL).

In turn, `Cn1nc(-c2ccc(F)cc2)cc1S(=O)(=O)Nc1ccc(CNC2CC(CNc3ccc(NS(=O)(=O)c4cnn(-c5ccc(Cl)cc5)c4)c(C(=O)O)c3)C2)cc1C(=O)O` (stereo not drawn) [Compound 34] registered a minimum inhibitory concentration (MIC) (Acinetobacter baumannii, 20 h) of 0.0489 µM (≈ 0.0422 µg/mL).

For `O=C(O)Cc1cc(CN2CC(Oc3ccc(NS(=O)(=O)c4cnn(-c5ccc(Cl)cc5)c4)c(C(=O)O)c3)C2)ccc1NS(=O)(=O)c1cnn(-c2ccc(Cl)cc2)c1` [Compound 2, 5-((1-(3-(carboxymethyl)-4-((1-(4-chlorophenyl)-1H-pyrazole)-4-sulfonamido)-benzyl)azetidin-3-yl)oxy)-2-((1-(4-chlorophenyl)-1H-pyrazole)-4-sulfonamido)benzoic acid], the MIC (Acinetobacter baumannii, 20 h) amounted to 0.0692 µM (≈ 0.059 µg/mL).

By MIC is commonly meant the lowest concentration found to suppress growth. Lower therefore signals inhibition by little substance.
